In patent US20250179059A1 (The Regents of the University of California, priority 2021, published 2025):

What was measured:
[1] = tested on: human SKM-1 acute myeloid leukemia cells; test: SKM-1 antiproliferation cell-based assay (ATPlite); conditions: Homo sapiens, SKM-1, 96 h, SKM-1 antiproliferation assay, 4 days, Table C2
Summary of the method: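 Log-phase cells in RPMI 1640/15% FBS were seeded at 34722 cells/mL and exposed for 4 days to nine-concentration DMSO serial dilutions in triplicate. Viability was read as ATP luminescence (ATPlite 1step), and IC50 values came from variable-slope non-linear regression.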

[2] = molecular target: T1, human BRD4 bromodomain II (Homo sapiens, UniProt O60885); test: Bromodomain binding assay (AlphaScreen), BRD4 BDII; conditions: AlphaScreen assay, Table C2; read-out: BRD4 BDII IC50
T1 construct: human BRD4 bromodomain II [based on Genbank NM_058243, residues 349-460]; host or cells: E. coli
Summary of the method: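 E. coli-expressed N-terminal His6-tagged human BRD4 BDII (residues 349-460) or BDI (residues 44-170) was preincubated 30 min at room temperature with compound (10-point, 3-fold) in pH 7.5 HEPES buffer, 1% DMSO. Displacement of biotinylated tetra-acetylated H4 1-21 peptide was read by AlphaScreen, and IC50 came from curve fitting.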

Row | GI50 [1] [nM] | IC50 [2] [nM] | SMILES
1 | 0.3 to 30 | 1 to 10 | Cc1cc(-c2ccc(-n3ccn(C)c3=O)c(Cl)c2)c(O)c(-c2cc(N3CCN[C@H](C)C3)c3cn[nH]c3c2)c1 [Example 585, (R)-1-(3-chloro-2′-hydroxy-5′-methyl-3′-(4-(3-methylpiperazin-1-yl)-1H-indazol-6-yl)-[1,1′-biphenyl]-4-yl)-3-methyl-1H-imidazol-2(3H)-one]
2 | 0.3 to 30 | 1 to 10 | Cn1ccn(-c2ccc(-c3cc(F)cc(-c4cc(N5CCC[C@@H](N)C5)c5cn[nH]c5c4)c3O)cc2Cl)c1=O [Example 586, (R)-1-(3′-(4-(3-aminopiperidin-1-yl)-1H-indazol-6-yl)-3-chloro-5′-fluoro-2′-hydroxy-[1,1′-biphenyl]-4-yl)-3-methyl-1H-imidazol-2(3H)-one]
3 | 0.3 to 30 | 0.01 to 1 | CN1CCN(c2cc(-c3cc(F)cc(-c4ccc(-n5ccn(C)c5=O)c(Cl)c4)c3O)cc3[nH]ncc23)CC1 [Example 588, 1-(3-chloro-5′-fluoro-2′-hydroxy-3′-(4-(4-methylpiperazin-1-yl)-1H-indazol-6-yl)-[1,1′-biphenyl]-4-yl)-3-methyl-1H-imidazol-2(3H)-one]
4 | 0.3 to 30 | 1 to 10 | Cn1ccn(-c2ccc(-c3cc(F)cc(-c4cc(N5CCNC(C)(C)C5)c5cn[nH]c5c4)c3O)cc2Cl)c1=O [Example 589, 1-(3-chloro-3′-(4-(3,3-dimethylpiperazin-1-yl)-1H-indazol-6-yl)-5′-fluoro-2′-hydroxy-[1,1′-biphenyl]-4-yl)-3-methyl-1H-imidazol-2(3H)-one]
5 | 30 to 300 | 1 to 10 | Cn1ccn(-c2ccc(-c3cc(F)cc(-c4cc(N5CCOCC5)c5cn[nH]c5c4)c3O)cc2Cl)c1=O [Example 590, 1-(3-chloro-5′-fluoro-2′-hydroxy-3′-(4-morpholino-1H-indazol-6-yl)-[1,1′-biphenyl]-4-yl)-3-methyl-1H-imidazol-2(3H)-one]
6 | 0.3 to 30 | 1 to 10 | CCC[C@@H]1CN(c2cc(-c3cc(F)cc(-c4ccc(-n5ccn(C)c5=O)c(Cl)c4)c3O)cc3[nH]ncc23)CCN1 [Example 592, (R)-1-(3-chloro-5′-fluoro-2′-hydroxy-3′-(4-(3-propylpiperazin-1-yl)-1H-indazol-6-yl)-[1,1′-biphenyl]-4-yl)-3-methyl-1H-imidazol-2(3H)-one]
7 | 0.3 to 30 | 0.01 to 1 | Cn1ccn(-c2ccc(-c3cc(F)cc(-c4cc(N5CC[C@@H](N)C5)c5cn[nH]c5c4)c3O)cc2Cl)c1=O [Example 593, (R)-1-(3′-(4-(3-aminopyrrolidin-1-yl)-1H-indazol-6-yl)-3-chloro-5′-fluoro-2′-hydroxy-[1,1′-biphenyl]-4-yl)-3-methyl-1H-imidazol-2(3H)-one]
8 | 0.3 to 30 | 0.01 to 1 | CC[C@@H]1CN(c2cc(-c3cc(F)cc(-c4ccc(-n5ccn(C)c5=O)c(Cl)c4)c3O)cc3[nH]ncc23)CCN1 [Example 594, (R)-1-(3-chloro-3′-(4-(3-ethylpiperazin-1-yl)-1H-indazol-6-yl)-5′-fluoro-2′-hydroxy-[1,1′-biphenyl]-4-yl)-3-methyl-1H-imidazol-2(3H)-one]
9 | 0.3 to 30 | 1 to 10 | C[C@H]1CN(c2cc(-c3cc(F)cc(-c4ccc(-n5ccn(C)c5=O)c(Cl)c4)c3O)cc3[nH]ncc23)CCN1 [Example 595, (S)-1-(3-chloro-5′-fluoro-2′-hydroxy-3′-(4-(3-methylpiperazin-1-yl)-1H-indazol-6-yl)-[1,1′-biphenyl]-4-yl)-3-methyl-1H-imidazol-2(3H)-one]
10 | 300 to 3000 | 10 to 100 | C[C@H]1CCCN(c2cc(-c3cc(F)cc(-c4ccc(-n5ccn(C)c5=O)c(Cl)c4)c3O)cc3[nH]ncc23)C1 [Example 596, (S)-1-(3-chloro-5′-fluoro-2′-hydroxy-3′-(4-(3-methylpiperidin-1-yl)-1H-indazol-6-yl)-[1,1′-biphenyl]-4-yl)-3-methyl-1H-imidazol-2(3H)-one]
11 | 0.3 to 30 | 1 to 10 | CC(C)[C@@H]1CN(c2cc(-c3cc(F)cc(-c4ccc(-n5ccn(C)c5=O)c(Cl)c4)c3O)cc3[nH]ncc23)CCN1 [Example 597, (R)-1-(3-chloro-5′-fluoro-2′-hydroxy-3′-(4-(3-isopropylpiperazin-1-yl)-1H-indazol-6-yl)-[1,1′-biphenyl]-4-yl)-3-methyl-1H-imidazol-2(3H)-one]
12 | 30 to 300 | 1 to 10 | Cn1ccn(-c2ccc(-c3cc(F)cc(-c4cc(N5CC6CC5CN6)c5cn[nH]c5c4)c3O)cc2Cl)c1=O (stereo not shown) [Example 599, 1-(3′-(4-(2,5-diazabicyclo[2.2.1]heptan-2-yl)-1H-indazol-6-yl)-3-chloro-5′-fluoro-2′-hydroxy-[1,1′-biphenyl]-4-yl)-3-methyl-1H-imidazol-2(3H)-one]

Continued, compound first:

Row | SMILES | GI50 [1] [nM] | IC50 [2] [nM]
13 | CC(C)N1CCN(c2cc(-c3cc(F)cc(-c4ccc(-n5ccn(C)c5=O)c(Cl)c4)c3O)cc3[nH]ncc23)CC1 [Example 587, 1-(3-chloro-5′-fluoro-2′-hydroxy-3′-(4-(4-isopropylpiperazin-1-yl)-1H-indazol-6-yl)-[1,1′-biphenyl]-4-yl)-3-methyl-1H-imidazol-2(3H)-one] | 0.3 to 30 | 1 to 10
14 | C[C@@H]1CN(c2cc(-c3cc(F)cc(-c4ccc(-n5ccn(C)c5=O)c(Cl)c4)c3O)cc3cccnc23)CCN1 [Example 591, (R)-1-(3-chloro-5′-fluoro-2′-hydroxy-3′-(8-(3-methylpiperazin-1-yl)quinolin-6-yl)-[1,1′-biphenyl]-4-yl)-3-methyl-1H-imidazol-2(3H)-one] | 0.3 to 30 | 0.01 to 1
15 | Cn1ccn(-c2ccc(-c3cc(F)cc(-c4cc(N5C[C@@H](N)C6(CC6)C5)c5cn[nH]c5c4)c3O)cc2Cl)c1=O [Example 598, (S)-1-(3′-(4-(7-amino-5-azaspiro[2.4]heptan-5-yl)-1H-indazol-6-yl)-3-chloro-5′-fluoro-2′-hydroxy-[1,1′-biphenyl]-4-yl)-3-methyl-1H-imidazol-2(3H)-one] | 0.3 to 30 | 1 to 10
16 | Cn1ccn(-c2ccc(-c3cc(F)cc(-c4cc(N5CC6CCC5CN6)c5cn[nH]c5c4)c3O)cc2Cl)c1=O (stereo not shown) [Example 600, 1-(3′-(4-(2,5-diazabicyclo[2.2.2]octan-2-yl)-1H-indazol-6-yl)-3-chloro-5′-fluoro-2′-hydroxy-[1,1′-biphenyl]-4-yl)-3-methyl-1H-imidazol-2(3H)-one] | 0.3 to 30 | 1 to 10
17 | Cn1ccn(-c2ccc(-c3cc(F)cc(-c4cc(N5CCN6CCCCC6C5)c5cn[nH]c5c4)c3O)cc2Cl)c1=O (stereo not shown) [Example 601, 1-(3-chloro-5′-fluoro-3′-(4-(hexahydro-1H-pyrido[1,2-a]pyrazin-2(6H)-yl)-1H-indazol-6-yl)-2′-hydroxy-[1,1′-biphenyl]-4-yl)-3-methyl-1H-imidazol-2(3H)-one] | 0.3 to 30 | 0.01 to 1
18 | C[C@@H]1CN(c2cc(-c3cc(F)cc(-c4ccc(-n5ccn(C)c5=O)c(Cl)c4)c3O)cn3ncnc23)CCN1 [Example 602, (R)-1-(3-chloro-5′-fluoro-2′-hydroxy-3′-(8-(3-methylpiperazin-1-yl)-[1,2,4]triazolo[1,5-a]pyridin-6-yl)-[1,1′-biphenyl]-4-yl)-3-methyl-1H-imidazol-2(3H)-one] | 0.3 to 30 | 0.01 to 1
19 | C[C@@H]1CN(c2cc(-c3cc(F)cc(-c4ccc(-n5ccn(C)c5=O)c(Cl)c4)c3O)cc3[nH]c(=O)[nH]c23)CCN1 [Example 603, (R)-6-(3′-chloro-5-fluoro-2-hydroxy-4′-(3-methyl-2-oxo-2,3-dihydro-1H-imidazol-1-yl)-[1,1′-biphenyl]-3-yl)-4-(3-methylpiperazin-1-yl)-1H-benzo[d]imidazol-2(3H)-one] | 30 to 300 | 0.01 to 1
20 | CN1CCN(c2cc(-c3cc(F)cc(-c4ccc(-n5ccn(C)c5=O)c(Cl)c4)c3O)cc3c2cnn3C)CC1 [Example 604, 1-(3-chloro-5′-fluoro-2′-hydroxy-3′-(1-methyl-4-(4-methylpiperazin-1-yl)-1H-indazol-6-yl)-[1,1′-biphenyl]-4-yl)-3-methyl-1H-imidazol-2(3H)-one] | 0.3 to 30 | 0.01 to 1
21 | C[C@@H]1CN(c2cc(-c3cc(F)cc(-c4ccc(-n5ccn(C)c5=O)c(Cl)c4)c3O)cc3c2nnn3C)CCN1 [Example 605, (R)-1-(3-chloro-5′-fluoro-2′-hydroxy-3′-(1-methyl-4-(3-methylpiperazin-1-yl)-1H-benzo[d][1,2,3]triazol-6-yl)-[1,1′-biphenyl]-4-yl)-3-methyl-1H-imidazol-2(3H)-one] | 0.3 to 30 | 0.01 to 1
22 | Cn1ccn(-c2ccc(-c3cc(F)cc(-c4cc(N5CCN6CCCC6C5)c5cn[nH]c5c4)c3O)cc2Cl)c1=O (stereo not shown) [Example 606, 1-(3-chloro-5′-fluoro-3′-(4-(hexahydropyrrolo[1,2-a]pyrazin-2(1H)-yl)-1H-indazol-6-yl)-2′-hydroxy-[1,1′-biphenyl]-4-yl)-3-methyl-1H-imidazol-2(3H)-one] | 0.3 to 30 | 0.01 to 1
23 | Cn1ccn(-c2ccc(-c3cc(F)cc(-c4cc(N5CC6CCC(C5)N6)c5cnn(C)c5c4)c3O)cc2Cl)c1=O [Example 607, 1-(3′-(4-(3,8-diazabicyclo[3.2.1]octan-3-yl)-1-methyl-1H-indazol-6-yl)-3-chloro-5′-fluoro-2′-hydroxy-[1,1′-biphenyl]-4-yl)-3-methyl-1H-imidazol-2(3H)-one] | 0.3 to 30 | 0.01 to 1
